Assay results published in patent EP0294695A2, “New polyoxygenated labdane derivatives, a process for their preparation, and their use as medicaments” (HOECHST AKTIENGESELLSCHAFT, priority 1987, dated 1988).

Assay: reduction of intraocular pressure
Assay type: in vivo
Conditions: 2% strength solution of the test compound; for Duration: duration of the decrease in intraocular pressure
Excerpt: The results of investigations into the reduction of intraocular pressure by some typical compounds of the formula I, according to the invention, are listed in Table 2. The results are expressed as the percentage decrease in the intraocular pressure when a 2% strength solution of the test compound is used.

C=C[C@@]1(C)CC(=O)[C@]2(O)[C@@]3(C)[C@@H](OC(=O)Nc4ccccc4)CCC(C)(C)[C@@H]3[C@H](O)[C@H](OC(=O)Nc3ccccc3)[C@@]2(C)O1 [Compound 1]
Decrease in intraocular pressure(%): 18% | Duration: 5 h

C=C[C@@]1(C)CC(=O)[C@]2(O)[C@@]3(C)[C@@H](O)CCC(C)(C)[C@@H]3[C@H](O)[C@H](OC(=O)NC)[C@@]2(C)O1 [Compound 2, 8,13-Epoxy-7β-methylaminocarbonyloxy-1α,6β,9α-trihydroxylabd-14-en-11-one]
Decrease in intraocular pressure(%): 23% | Duration: 5 h

C=C[C@@]1(C)CC(=O)[C@]2(O)[C@@]3(C)[C@@H](O)CCC(C)(C)[C@@H]3[C@H](O)[C@H](OC(=O)NC(C)C)[C@@]2(C)O1 [Compound 3, 7β-isopropylaminocarbonyloxy-8,13-epoxy-1α,6β,9α-trihydroxylabd-14-en-11-one]
Decrease in intraocular pressure(%): 34% | Duration: 6 h

C=C[C@@]1(C)CC(=O)[C@]2(O)[C@@]3(C)[C@@H](O)CCC(C)(C)[C@@H]3[C@H](O)[C@H](OC(=O)NC(C)(C)C)[C@@]2(C)O1 [Compound 4, 7β-t-Butylaminocarbonyloxy-8,13-epoxy-1α,6β9α-trihydroxylabd-14-en-11-one]
Decrease in intraocular pressure(%): 21% | Duration: 6 h
